Results as given in ChEMBL document CHEMBL1137026, “Design and synthesis of novel Cdc25A-inhibitors having phosphate group as a hydrophilic residue” (Bioorg Med Chem Lett, 2004).

Columns and labels:
[1] = molecular target: T1, M-phase inducer phosphatase 1 (Homo sapiens, UniProt P30304); assay: Inhibitory concentration against dual-specificity phosphatase Cell division cycle (Cdc) 25A
T1 sequence (P30304 whole entry): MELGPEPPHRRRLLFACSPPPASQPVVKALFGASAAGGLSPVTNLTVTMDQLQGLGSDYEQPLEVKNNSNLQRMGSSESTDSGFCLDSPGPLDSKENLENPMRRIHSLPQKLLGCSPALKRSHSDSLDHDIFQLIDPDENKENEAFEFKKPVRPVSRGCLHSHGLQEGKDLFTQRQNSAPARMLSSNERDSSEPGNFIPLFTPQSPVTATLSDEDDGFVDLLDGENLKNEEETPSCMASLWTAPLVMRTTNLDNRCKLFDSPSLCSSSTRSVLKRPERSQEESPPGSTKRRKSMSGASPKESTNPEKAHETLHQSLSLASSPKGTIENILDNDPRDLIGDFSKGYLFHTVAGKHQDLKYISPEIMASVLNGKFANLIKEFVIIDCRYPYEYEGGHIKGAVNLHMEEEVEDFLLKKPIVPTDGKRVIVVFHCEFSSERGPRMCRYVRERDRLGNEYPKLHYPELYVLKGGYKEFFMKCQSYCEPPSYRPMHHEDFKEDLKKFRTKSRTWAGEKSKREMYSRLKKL

[2] = molecular target: T2, M-phase inducer phosphatase 2 (Homo sapiens, UniProt P30305); assay: Inhibitory concentration against dual-specificity phosphatase Cell division cycle (Cdc) 25B
T2 sequence (P30305 whole entry): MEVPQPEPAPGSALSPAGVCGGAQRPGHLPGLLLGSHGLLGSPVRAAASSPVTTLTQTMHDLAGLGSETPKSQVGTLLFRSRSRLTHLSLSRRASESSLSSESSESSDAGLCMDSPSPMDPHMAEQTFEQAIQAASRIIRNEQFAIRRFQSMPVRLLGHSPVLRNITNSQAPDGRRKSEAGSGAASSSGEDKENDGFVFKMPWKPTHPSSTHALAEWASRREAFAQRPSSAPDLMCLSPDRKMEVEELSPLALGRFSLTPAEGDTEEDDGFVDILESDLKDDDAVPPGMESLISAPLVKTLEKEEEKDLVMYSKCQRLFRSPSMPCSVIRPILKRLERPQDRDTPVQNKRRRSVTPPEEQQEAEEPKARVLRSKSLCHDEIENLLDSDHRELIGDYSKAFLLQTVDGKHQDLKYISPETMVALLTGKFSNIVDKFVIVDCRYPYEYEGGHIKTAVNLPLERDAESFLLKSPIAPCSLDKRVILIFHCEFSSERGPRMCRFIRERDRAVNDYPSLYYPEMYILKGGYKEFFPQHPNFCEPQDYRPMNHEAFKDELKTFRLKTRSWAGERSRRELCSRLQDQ

Row | Compound | IC50 [1] [µM] | IC50 [2] [µM]
1 | CC(C)CCC[C@@H](C)[C@H]1CCC2[C@@](C)(CCO)CCC[C@@]21C (some centres not stated) | 6.9 | 1.3
2 | CC(C)CCC[C@@H](C)[C@H]1CCC2[C@@H](O)CCC[C@@]21C (some centres not stated) | 3.9 | 5.8
3 | CC(C)CCC[C@@H](C)[C@H]1CCC2[C@](C)(CCO)CCC[C@@]21C (some centres not stated) | 5.5 | 1.7
4 | CC(C)CCC[C@@H](C)[C@H]1CCC2/C(=C/C(=O)O)CCC[C@@]21C (some centres not stated) | 17.2 | 5.9
5 | CC(C)CCC[C@@H](C)[C@H]1CCC2[C@@H](OP(=O)(O)O)CCC[C@@]21C (some centres not stated) | 8.2 | 5

Further lines, results first:

Row | IC50 [1] [µM] | IC50 [2] [µM] | Compound
6 | 22.7 | 4.5 | CC(C)CCC[C@@H](C)[C@H]1CCC2[C@@](C)(CO)CCC[C@@]21C (some centres not stated)
7 | 24.5 | 6.8 | CC(C)CCC[C@@H](C)[C@H]1CCC2[C@@](C)(CCOP(=O)(O)O)CCC[C@@]21C (some centres not stated)
8 | 5.5 | 1.2 | CC(C)CCC[C@@H](C)[C@H]1CCC2[C@](C)(CCOP(=O)(O)O)CCC[C@@]21C (some centres not stated)
9 | 0.7 | 3.7 | CC(C)CCC[C@@H](C)[C@H]1CCC2[C@@](C)(COP(=O)(O)O)CCC[C@@]21C (some centres not stated)
10 | 8.5 | 3.3 | CC(C)CCC[C@@H](C)[C@H]1CCC2[C@](C)(CO)CCC[C@@]21C (some centres not stated)
11 | 0.9 | 3 | CC(C)CCC[C@@H](C)[C@H]1CCC2C(C)(COP(=O)(O)O)CCC[C@@]21C (single isomer, unassigned)
